Columns and labels:
[1] = biological target: T1, amyloid (aggregated Aβ1-40) (Homo sapiens, UniProt P05067); test: Measurement of binding to amyloid (radiolabelled compound, glass fiber filtration); conditions: amyloid 2.5-1000 nmol/L, 22° C., 3 hours
T1 construct: Aβ1-40 (Peptide Institute, INC.) was dissolved in phosphate buffer (pH 7.4); purchased Peptide Institute, INC
Experimental: (7) A relation between the amount of the Compound I-6 binding to amyloid and the amount of added amyloid was evaluated from the measurement results of (6). Unspecific binding was determined using a sample to which the Compound I-2 (non-RI labeled compound) was added to become 100 nM (at a final concentration) above in (4) (Example I-7).
(8) Using [^125I]-IMPY synthesized in the above Reference Example I-6, the same procedure as the above (2) to (6) were carried out to obtain control data (Comparative Example I-1).
A relation between the concentration of amyloid in the sample solution and the radioactive count on the glass fiber filter measured above in (6) is shown in FIG. 1-11. The radioactivity on the glass fiber was increased proportionally to the concentration (addition amount) of amyloid (Example I-7). […] Therefore, the radioactive count on the glass fiber is a value reflecting the amount of the compound attached to amyloid, and the slope of the graph which plotted the radioactive count relative to the concentration of amyloid is a value which can be an index representing the intensity of binding to amyloid.

[2] = Transferability into brain and clearance, Examples I-20 to I-21; format: in vivo, male Wistar rats; conditions: rats, intravenous injection, Table 1-7
Excerpt: Three animals were used for Experiment I-20 and Comparative Experiment I-9, and two animals were used for Experiment I-21 at the respective time points.

[3] = test system: intracerebral amyloid (aggregated Aβ1-40 injected into amygdaloid nucleus); test: Confirmation of imaging of amyloid in brain (ex vivo autoradiogram), Example I-22; design: species or system male Wistar rat; conditions: brain slice 60 minutes after tail vein injection
Experimental: (§1) (1) Aβ1-40 (manufactured by Peptide Institute, INC.) was dissolved in phosphate buffer (pH 7.4) and shaken at 37° C. for 72 hours, to obtain 1 mg/mL of a suspension of aggregated Aβ (hereinafter referred to as amyloid suspension in this Example).
(§2) (2) 25 μL (corresponding to 25 μg) of the amyloid suspension was injected into an amygdaloid nucleus on one side of a male Wistar rat (7-week old). As a control, 25 μL of a phosphate buffered physiological saline solution (pH 7.4) was injected into an amygdaloid nucleus on the other side of the rat. The rats were examined 1 day after the injection of the amyloid suspension and the phosphate buffered physiological saline solution (pH 7.4).
(§3) This solution was injected into the rat through the tail vein (dosage: 0.5 mL, dosed radioactivity: 16 MBq equivalent).
(§4) (4) Brain was removed 60 minutes after the injection to prepare a brain slice of 10 μm in thickness with a microtome (type: CM3050S, manufactured by LEICA). The brain slice was exposed to an imaging plate for 20 hours, and then image analysis was carried out by use of a Bio-imaging Analyzer (type: BAS-2500; manufactured by FUJIFILM Corporation).

[4] = biological target: T2, intracerebral amyloid (aggregated Aβ1-40 injected into amygdaloid nucleus) (Homo sapiens, UniProt P05067); test: as above; design: species or system male Wistar rat; conditions: brain slice 60 minutes after tail vein injection
T2 construct: Aβ1-40 (Peptide Institute, INC.) was dissolved in phosphate buffer (pH 7.4); purchased Peptide Institute, INC
Experimental: as §1, §2, §3, §4

[5] = Transferability into brain and clearance (2), Example I-30; format: in vivo, male Wistar rats; conditions: rats, intravenous injection, Table 1-10
Experimental: 0.05 mL each of these solutions was injected under thiopental anesthesia into the tail vein of respective Wistar rats (7-week old). The rats were sacrificed by bleeding from abdominal artery, and brains were removed and subjected to measurement of mass of brains and further subjected to measurement of radioactivity (hereinafter referred to as A in this Example) with a single channel analyzer (detector type: SP-20 manufactured by OHYO KOKEN KOGYO Co., Ltd.) 2, 5, 30 and 60 minutes after the injection. Also, radioactivity (hereinafter referred to as B in this Example) of the rest of the whole body was measured in the same manner as above. Using these measurement results, radioactive distribution per unit weight of brain (% ID/g) at the respective time points were calculated in accordance with the following formula (1-7).
Three animals were used for experiment at the respective time points.

[6] = test system: intracerebral amyloid (aggregated Aβ1-42 injected into amygdaloid nucleus); test: Confirmation of imaging of amyloid in brain (ex vivo autoradiogram), Example I-31; design: species or system male Wistar rat
Experimental: (§5) (1) Aβ1-42 (Wako) was dissolved in phosphate buffer (pH 7.4) and shaken at 37° C. for 72 hours, to obtain a 1 mg/mL suspension of aggregated Aβ (hereinafter referred to as amyloid suspension in this Example).
(§6) (2) 2.5 μL (corresponding to 25 μg) of the amyloid suspension was injected into an amygdaloid nucleus on one side of a male Wistar rat (7-week old). As a control, 2.5 μL of a phosphate buffered physiological saline solution (pH 7.4) was injected into an amygdaloid nucleus on the other side of the rat. The rats were examined 1 day after the injection of the amyloid suspension and the phosphate buffered physiological saline solution (pH 7.4).
(§7) This solution was injected under thiopental anesthesia into the rat through the tail vein (dosage: 0.5 mL, dosed radioactivity: 11-15 MBq equivalent).
as §4

[7] = biological target: T3, intracerebral amyloid (aggregated Aβ1-42 injected into amygdaloid nucleus) (Homo sapiens, UniProt P05067); test: as above; design: species or system male Wistar rat; conditions: brain slice 60 minutes after tail vein injection
T3 construct: Aβ1-42 (Wako) was dissolved in phosphate buffer (pH 7.4); purchased Wako
Experimental: as §5, §6, §7, §4

[8] = Transferability into brain and clearance, Examples II-22 to II-23; format: in vivo, male Wistar rats; conditions: rats, intravenous injection, Table 2-7
Experimental: 0.05 mL each of the prepared sample solutions was injected under thiopental anesthesia into the tail vein of the respective Wistar rat (7-week old). The rats were sacrificed by bleeding from abdominal artery, and brains were removed and subjected to measurement of mass of brains and further subjected to measurement of radioactivity (hereinafter referred to as A in this Example) with a single channel analyzer (detector type SP-20 manufactured by OHYO KOKEN KOGYO Co., Ltd.) 2, 5, 30, and 60 minutes after the injection. Further, the radioactivity level of the rest of the whole body was measured in the same manner as above (hereinafter referred to as B in this Example). Using these measurement results, radioactive distribution per unit weight of brain (% ID/g) at the respective time points were calculated in accordance with the following formula (2-5).
(§8) Three animals were used for the experiment at the respective time points.

[9] = Partition coefficient based on the octanol extraction method, Examples II-20 to II-21; format: physicochemical; conditions: octanol / 10 mmol/L phosphate buffer (pH 7.4); Table 2-6
Experimental: To 2 mL of octanol, 10 μL each of the prepared sample solution was added, and 2 mL of 10 mmol/L phosphate buffer (pH 7.4) was further added, followed by stirring for 30 seconds. After the mixture was centrifuged with a low-speed centrifuge (2000 rpm×60 min.), the octanol layer and the water layer were sampled each in an amount of 1 mL, and subjected to measurement of radioactivity count with an autowell gamma system (Type: ARC-301B, manufactured by Aloka). Using the obtained radioactivity count, log Poctanol was calculated in accordance with the equation (2-4).

[10] = test system: intracerebral amyloid (aggregated Aβ1-42 injected into amygdaloid nucleus); test: Confirmation of imaging of amyloid in brain (ex vivo autoradiogram), Examples II-24 to II-25; design: species or system male Wistar rat; conditions: for accumulation of radioactivity at sites other than the site to which amyloid was injected: autoradiogram, 60 minutes after tail vein injection; for accumulation of radioactivity in amygdaloid nucleus on the side to which the physiological saline solution was injected: brain slice 60 minutes after tail vein injection
Experimental: as §6, §7, §4

[11] = biological target: T3, intracerebral amyloid (aggregated Aβ1-42 injected into amygdaloid nucleus); test: as above; design: species or system male Wistar rat; conditions: brain slice 60 minutes after tail vein injection
Experimental: as §6, §7, §4

[12] = Partition coefficient based on HPLC; format: physicochemical; conditions: 50 mM triethylamine phosphate (pH 7.2)/acetonitrile=40/60; log PHPLC=0.96(log10K′HPLC)+1.59
Experimental: The partition coefficient by HPLC (hereinafter referred to as log PHPLC) was measured by the following method.
First, compounds for evaluation shown in Table 1-5 were dissolved at a concentration of 1 mg/mL in methanol containing 10% dimethylsulfoxide to prepare sample solutions. One μL of the sample solution was subjected to HPLC analysis under the following conditions to determine the elution time (t0) of the solvent and the elution time (tR) of each compound. […]
Using the obtained t0 and tR, the retention factor (hereinafter referred to as K′HPLC value) of each compound for evaluation was determined according to the following calculation formula (1-3). […]
After the individual solutions were stirred for 30 seconds, the solutions were centrifuged at 2,000 rpm for 60 minutes. 1 mL each of the octanol phase and the water phase was fractionated, and the radioactivity was measured by an autowell gamma system (manufactured by Aloka Co., Ltd.: Type ARC-301B). Based on the obtained radioactivity, log Poctanol values were calculated according to the above equation (1-2). […]
Using K′HPLC obtained for each compound for evaluation, the log PHPLC value of each compound for evaluation was determined according to the above calculation formula (1-4).

[13] = International Publication WO03/106439 pamphlet; cited from earlier work
[14] = rats, [11C]-labeled; cited from earlier work
[15] = test system: intracerebral amyloid (aggregated Aβ1-40 injected into amygdaloid nucleus); test: Ex vivo autoradiogram of 123I-IMPY using rats of amyloid injected model, Comparative Example II-6; format: in vivo, male Wistar rat; conditions: autoradiogram, 60 minutes after tail vein injection
Experimental: as §1, §6
(§9) This solution was injected under thiopental anesthesia into the rat through the tail vein (dosage: 0.5 mL, dosed radioactivity: 14.5 MBq equivalent).
as §4

[16] = biological target: T2, intracerebral amyloid (aggregated Aβ1-40 injected into amygdaloid nucleus); test: as above; format: in vivo, male Wistar rat; conditions: brain slice 60 minutes after tail vein injection
Experimental: as §1, §6, §9, §4

[17] = Partition coefficient based on the octanol extraction method, Examples I-13 to I-14; format: physicochemical; conditions: octanol / 10 mmol/L phosphate buffer (pH 7.4); Table 1-4
Experimental: After the mixture was centrifuged with a low-speed centrifuge (2000 rpm×60 min.), the octanol layer and the water layer were sampled each in an amount of 1 mL, and subjected to measurement of radioactivity count with an autowell gamma system (manufactured by Aloka, Type: ARC-301B). Using the obtained radioactivity count, log Poctanol was calculated in accordance with the equation (1-2).

[18] = Partition coefficient based on the octanol extraction method, Example I-29; format: physicochemical; conditions: octanol / 10 mmol/L phosphate buffer (pH 7.4); Table I-9
Experimental: To 2 mL of octanol, 10 μL each of the prepared sample solutions was added, and 2 mL of a 10 mmol/L phosphate buffer (pH 7.4) was further added, followed by stirring for 30 seconds.

[19] = Partition coefficient based on the octanol extraction method, Examples II-8 to II-9; format: physicochemical; conditions: octanol / 10 mmol/L phosphate buffer (pH 7.4); Table 2-4
Experimental: To 2 mL of octanol, 10 μL each of the prepared sample solutions was added, 2 mL of 10 mmol/L phosphate buffer (pH 7.4) was added, followed by stirring for 30 seconds. After the mixture was centrifuged with a low-speed centrifuge (2000 rpm×60 min.), the octanol layer and the water layer were sampled each in an amount of 1 mL, and subjected to measurement of radioactivity count with an autowell gamma system (Type: ARC-301B, manufactured by Aloka). Using the obtained radioactivity count, log Poctanol was calculated in accordance with the equation (2-2).

[20] = Transferability into brain and clearance, Examples II-10 to II-11; format: in vivo, male Wistar rats; conditions: rats, intravenous injection, Table 2-5
Experimental: 0.05 mL each of the prepared sample solutions was injected under thiopental anesthesia into the tail vein of the rats. The rats were sacrificed by bleeding from abdominal artery, and brains were removed and subjected to measurement of mass of brains and further subjected to measurement of radioactivity (hereinafter referred to as A in this Example) with a single channel analyzer (detector type SP-20 manufactured by OHYO KOKEN KOGYO Co., Ltd.) 2, 5, 30, and 60 minutes after the injection. Further, the radioactivity level of the rest of the whole body was measured in the same manner as above (hereinafter referred to as B in this Example). Using these measurement results, radioactive distribution per unit weight of brain (% ID/g) at the respective time points were calculated in accordance with the following formula (2-3).
as §8

T3 sequence (P05067 672-713): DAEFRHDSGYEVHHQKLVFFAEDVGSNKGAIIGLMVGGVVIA
T2 sequence (P05067 672-711): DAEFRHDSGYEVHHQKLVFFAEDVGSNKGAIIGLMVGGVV
T1 sequence (P05067 672-711 limits assumed): as the sequence (P05067 672-711) above

SMILES: FCCCOc1ccc(-c2cn3cc([125I])ccc3n2)cc1 [Compound I-6, 2-[4′-(3″-fluoropropoxy)phenyl]-6-[^125I]iodoimidazo[1,2-a]pyridine]
- slope of radioactive count on the glass fiber relative to the concentration of amyloid (index of intensity of binding to amyloid) [1]: greater than the slope for [^125I]-IMPY

SMILES: FCCCOc1ccc(-c2cn3cc([123I])ccc3n2)cc1 [Compound I-7, 2-[4′-(3″-fluoropropoxy)phenyl]-6-[^123I]iodoimidazo[1,2-a]pyridine]
- Radioactive distribution in brain per unit weight, After 2 min. [2]: 1.10 % ID/g
- Radioactive distribution in brain per unit weight, After 5 min. [2]: 0.75 % ID/g
- Radioactive distribution in brain per unit weight, After 30 min. [2]: 0.12 % ID/g
- Radioactive distribution in brain per unit weight, After 60 min. [2]: 0.05 % ID/g
- accumulation of radioactivity in amygdaloid nucleus on the side to which the physiological saline solution was injected [3]: no significant accumulation of radioactivity
- accumulation of radioactivity in amygdaloid nucleus on the side to which the amyloid suspension was injected [4]: marked accumulation of radioactivity

SMILES: FCCOc1ccc(-c2cn3cc([123I])ccc3n2)cc1 [Compound I-9, 2-[4′-(2″-fluoroethoxy)phenyl]-6-[^123I]iodoimidazo[1,2-a]pyridine]
- Radioactive distribution in brain per unit weight, After 2 min. [5]: 0.72 % ID/g
- Radioactive distribution in brain per unit weight, After 5 min. [5]: 0.49 % ID/g
- Radioactive distribution in brain per unit weight, After 30 min. [5]: 0.07 % ID/g
- Radioactive distribution in brain per unit weight, After 60 min. [5]: 0.02 % ID/g
- accumulation of radioactivity at sites other than the sites to which amyloid was injected ([6]; autoradiogram, 60 minutes after tail vein injection): little accumulation of radioactivity
- accumulation of radioactivity in amygdaloid nucleus on the side to which the physiological saline solution was injected ([6]; brain slice 60 minutes after tail vein injection): no significant accumulation of radioactivity
- accumulation of radioactivity in amygdaloid nucleus on the side to which the amyloid suspension was injected [7]: marked accumulation of radioactivity

SMILES: OCCOc1cccc(-c2cn3cc([123I])ccc3n2)c1 [Compound II-4, 2-[3′-(2″-hydroxyethoxy)phenyl]-6-[^123I]iodoimidazo[1,2-a]pyridine]
- Radioactive distribution in brain per unit weight, After 2 min. [8]: 0.56 % ID/g
- Radioactive distribution in brain per unit weight, After 5 min. [8]: 0.28 % ID/g
- Radioactive distribution in brain per unit weight, After 30 min. [8]: 0.04 % ID/g
- Radioactive distribution in brain per unit weight, After 60 min. [8]: 0.01 % ID/g
- logPoctanol value [9]: 2.5
- accumulation of radioactivity at sites other than the site to which amyloid was injected [10]: little accumulation of radioactivity
- accumulation of radioactivity in amygdaloid nucleus on the side to which the physiological saline solution was injected [10]: no significant accumulation of radioactivity
- accumulation of radioactivity in amygdaloid nucleus on the side to which the amyloid suspension was injected [11]: marked accumulation of radioactivity

SMILES: OCCCOc1ccc(-c2cn3cc([123I])ccc3n2)cc1 [Compound II-6, 2-[4′-(3″-hydroxypropoxy)phenyl]-6-[^123I]iodoimidazo[1,2-a]pyridine]
- Radioactive distribution in brain per unit weight, After 2 min. [8]: 0.81 % ID/g
- Radioactive distribution in brain per unit weight, After 5 min. [8]: 0.56 % ID/g
- Radioactive distribution in brain per unit weight, After 30 min. [8]: 0.07 % ID/g
- Radioactive distribution in brain per unit weight, After 60 min. [8]: 0.02 % ID/g
- logPoctanol value [9]: 2.1
- accumulation of radioactivity at sites other than the site to which amyloid was injected [10]: little accumulation of radioactivity
- accumulation of radioactivity in amygdaloid nucleus on the side to which the physiological saline solution was injected [10]: no significant accumulation of radioactivity
- accumulation of radioactivity in amygdaloid nucleus on the side to which the amyloid suspension was injected [11]: marked accumulation of radioactivity

SMILES: CN(C)c1ccc(-c2cn3cc(I)ccc3n2)cc1 [IMPY, 6-iodo-2-[4′-(N,N-dimethylamino)phenyl]imidazo[1,2-a]pyridine]
- logPHPLC value [12]: 2.1
- reverse mutation test result [13]: positive

SMILES: CNc1ccc(/C=C/c2ccc(O)cc2)cc1 [SB-13, (E)-4-methylamino-4′-hydroxystilbene]
- clearance from normal tissues [14]: it cannot be said that the clearance is sufficiently fast

SMILES: CN(C)c1ccc(-c2cn3cc([123I])ccc3n2)cc1 [[^123I]-IMPY, reference compound]
- Radioactive distribution in brain per unit weight, After 2 min. [8]: 1.19 % ID/g
- Radioactive distribution in brain per unit weight, After 5 min. [8]: 0.97 % ID/g
- Radioactive distribution in brain per unit weight, After 30 min. [8]: 0.23 % ID/g
- Radioactive distribution in brain per unit weight, After 60 min. [8]: 0.09 % ID/g
- accumulation of radioactivity where amyloid was not injected (white matter) [15]: non-specific accumulation was observed in white matter
- accumulation of radioactivity in amygdaloid nucleus on the side to which the amyloid suspension was injected [16]: marked accumulation of radioactivity
- logPoctanol value [9]: 2.1
- Radioactive distribution in brain per unit weight, After 2 min. [2]: 1.02 % ID/g
- Radioactive distribution in brain per unit weight, After 5 min. [2]: 0.99 % ID/g
- Radioactive distribution in brain per unit weight, After 30 min. [2]: 0.20 % ID/g
- Radioactive distribution in brain per unit weight, After 60 min. [2]: 0.08 % ID/g
- Radioactive distribution in brain per unit weight, After 2 min. [5]: 1.19 % ID/g
- Radioactive distribution in brain per unit weight, After 5 min. [5]: 0.97 % ID/g
- Radioactive distribution in brain per unit weight, After 30 min. [5]: 0.23 % ID/g
- Radioactive distribution in brain per unit weight, After 60 min. [5]: 0.09 % ID/g
- logPoctanol value [17]: 2.1
- logPoctanol value [18]: 2.1
- logPoctanol value [19]: 1.9
- Radioactive distribution in brain per unit weight, After 2 min. ([20]; 2 min.): 1.19 % ID/g
- Radioactive distribution in brain per unit weight, After 5 min. ([20]; 5 min.): 0.97 % ID/g
- Radioactive distribution in brain per unit weight, After 30 min. ([20]; 30 min.): 0.23 % ID/g
- Radioactive distribution in brain per unit weight, After 60 min. ([20]; 60 min.): 0.09 % ID/g

Reference: patent publication US8506930B2, “Compounds having affinity for amyloid” (Nihon Medi-Physics Co., Ltd., priority 2006, dated 2013)
